One series is described as follows: Rat brain tissue binding. Type of series: in vitro ADME. As to conditions: rat brain tissue homogenate. Here is the method: (§1) Test compounds’ solubility was determined in a high-throughput thermodynamic solubility assay, as described previously. The PAMPA (parallel artificial membrane) assays were carried out, using a standard protocol. Plasma protein binding was determined by using mouse blood, whilst brain tissue binding was determined by using rat brain tissue homogenate. Intrinsic metabolic clearances were determined in mouse liver microsomes, using the compound depletion approach and LC–MS/MS quantification.

Series [1] can be described thus: High-throughput thermodynamic solubility assay. Type of series: physicochemical. The following applies: for solubility: pH 6.8, thermodynamic from solid. The method, then: as §1
Series [2] in a line: HepG2 cytotoxicity assay (CCK-8, 96 h). It counts as cell-based, human. The following applies: human, HepG2 cells, mean ± SEM. The method, then: The HepG2 (human hepatocellular carcinoma) cells were obtained from ATCC (American Type Culture Collection) and grown in RPMI media. Cytotoxicity assay was performed in 384-well format, and 25 µL, approximately 1.6 × 10^4 cells/mL, suspension was added to clear-bottom 384-well Griener plates and incubated in 5% CO2 incubator, at 37 °C for 24 h. Once the cells adhered, 125 nL of threefold serially diluted compounds in DMSO was added. Plates were incubated for 96 h, at 37 °C, in a 5% CO2 incubator. Plates were read for viability by adding 10 µL of CCK-8 reagent (APExBIO) into each well, followed by 3 h incubation and absorbance reading at […], using an Envision plate reader. […] Puromycin was used as a positive control. All experiments had two technical replicates and three biological replicates. Appropriate statistical tests were used for evaluating significance, and mean ± SEM is represented in the tables.

Another series deals with T. brucei PSMB4^WT. Description: Growth inhibition of T. brucei expressing wild-type 20S proteasome β4 subunit. Type of series: cell-based. The following applies: Trypanosoma brucei, read-out: T. brucei PSMB4^WT EC50. The method, then: (§2) For determination of 50% growth inhibition, all compounds were dissolved in DMSO, and 200 nL of threefold serially diluted compounds were added into solid-bottom 384-well white plates (Greiner Bio-One, Kremsmunster, Austria) by an Echo 555 acoustic liquid-handling system. Forty microliters of 10^4 cells/mL of T. b. brucei parasites was added into each well, and the plates were incubated in a 5% CO2 incubator at 37 °C for 48 h. Viability of parasites were determined by measuring intracellular ATP levels, using CellTiter-Glo (CTG) luminescent cell viability reagent (Promega, Madison, Wisconsin WI, USA). The EC50 values were determined by using GraphPad Prism software. Growth inhibition assays for all clinical isolates were carried out as described earlier. All experiments had two technical replicates and three biological replicates. Appropriate statistical tests were used for evaluating significance, and mean ± SEM is represented in the tables.

The nature of series [3]: Per oral pharmacokinetics in mouse. It counts as in vivo. The following applies: for AUC / Cmax: total. The method, then: Determination of intravenous (i.v.) and per oral (p.o.) pharmacokinetics (PK) were carried out by using male BALB/c mice. For i.v. PK studies, compounds were formulated at a concentration of 2.5 mg/mL in 75% PEG300 and 25% D5W (5% dextrose in distilled water). To avoid any granular material, the solution was filtered, using a 0.45 μm syringe filter. The filtered solutions were dosed intravenously to mice via the lateral tail vein, at 5 mg/kg, with a dosing volume of 2 mL/kg. For all the p.o. PK studies, compounds were resuspended in 0.5% v/v methyl cellulose in 0.5 % v/v tween 80 solution. For 20 mg/kg dosing, 200 µL of compounds was administered orally to mice. Six blood samples of 50 μL each were collected serially from each animal, up to 24 h after dosing. Blood samples were collected into heparin microtainers and centrifuged, and then plasma was separated and frozen until analysis. Plasma samples (20 μL) were extracted with acetonitrile:methanol (3:1) containing internal standard. The samples were vortexed and then centrifuged in an Eppendorf centrifuge 5810R, at a setting of 4000 rpm, for 5 min, at 4 °C. The supernatant was transferred to a 96-well analysis plate and analyzed, using optimized LC/MS/MS conditions. For every experiment, 3 mice were used per compound, per dose. The plasma concentration-time profile was obtained by plotting the mean value from the three animals at each time point. Various PK parameters, such as Cmax (maximum concentration), area under curve (AUC) and oral bioavailability (F) for compounds, were calculated by non-compartmental regression analysis, using an in-house fitting program developed at GNF [8]. All the in-life studies were carried out under protocols approved by the Animal Care and Use Committee (IACUC), following animal ethics guidelines of GNF.

The next series deals with MDR1 (Pgp). The series is described as follows: in vitro. The following applies: dog, MDCK-MDR1. Here is the method:
In order to evaluate potential of brain permeability, all three compounds were tested in an MDR1-MDCK permeability assay. […] Those that have a high efflux ratio are generally substrates for Pgp transporters, thereby having a higher propensity to be excluded from the brain. […] To assess directly the TP compounds’ ability to penetrate brain, mice were dosed with compound, and plasma and brains were collected after 5 and 60 min following intravenous dosing.

The test system of the next series is T. brucei PSMB4^F24L. Description: Growth inhibition of T. brucei expressing F24L mutant 20S proteasome β4 subunit. It counts as cell-based, Trypanosoma brucei. As to conditions: Trypanosoma brucei, read-out: T. brucei PSMB4^F24L EC50. The method, then: as §2
The nature of series [4]: Mouse plasma protein binding. It counts as in vitro ADME. As to conditions: for fraction unbound: mouse plasma. Here is the method:
as §1

For the next series, the system named is T. b. brucei. Description: Growth inhibition of T. b. brucei strains BS221, BS221 (P2 KO), STIB950. It counts as cell-based. The following applies: Trypanosoma brucei, mean ± SD, read-out: T. b. brucei EC50. The method, then:
The T. b. brucei strain Lister 427 (bloodstream form) parasites were continuously grown in complete HMI-9 medium supplemented with 10% Serum Plus and 10% heat-inactivated fetal bovine serum (FBS). All other parasite strains were cultured as described elsewhere.
as §2, with “Appropriate statistical tests were used for evaluating significance, and mean ± SEM is represented in the tables.” left out

In another series the test system is T. b. rhodesiense. Description: Growth inhibition of T. b. rhodesiense strains. It counts as cell-based. The following applies: Trypanosoma brucei, mean ± SD, read-out: T. b. rhodesiense EC50.
The mark [5] stands for this setting: male, BALB/c, plasma, po, p.o. 20 mg/kg, 0 to infinity.
Where [6] appears, read: male, BALB/c, plasma, po, p.o. 20 mg/kg.
The mark [7] stands for this setting: RHODESIENSE / STIB900, strain STIB900.
Setting [8] is: RHODESIENSE / STIB900, strain STIB900 Mel^R (melarsoprol-resistant).
The mark [9] stands for this setting: RHODESIENSE / STIB900, strain STIB900 Pent^R (pentamidine-resistant).

Values after ≈ are worked out from the molar mass of the structure shown. Like-named read-outs stand apart in the source and are kept apart here.

Regarding `Cc1nc(C)c(C(=O)Nc2ccc(F)c(-c3nc4ncc(C(C)(C)C)cn4n3)c2)o1` [NITD689], the “BTB (rat brain tissue binding)” value in “Rat brain tissue binding” was found to be 96.5%. This compound also had a solubility in series [1] of 71 µg/mL (≈ 174 µM). For the same compound, in series [2], the CC50 at 96 h was over 20000 nM. The results for the EC50 in the series on T. brucei PSMB4^WT and with T. brucei PSMB4^F24L were 20 ± 4 nM and 1900 ± 20 nM, respectively. The compound further registered an AUC in [3] (setting [5]) of 89.7 µM·h. Further, in [3] (male, BALB/c, plasma, po, p.o. 20 mg/kg, read-out: F (oral bioavailability)), the bioavailability turned out to be 100%. In [3] (setting [6]), this compound yielded a maximum concentration (Cmax) of 12.2 µM. The Tmax in series [3] (p.o. 20 mg/kg) was found to be 0.5 H. For the same compound, the “Cmax, free fraction (value in parenthesis)” value in series [3] (p.o. 20 mg/kg, free) was 1.1562 µM. Besides, the efflux ratio in the series with MDR1 (Pgp) worked out at 0.9. The fraction unbound in series [4] was 0.095.

`Cc1nc(C)c(C(=O)Nc2ccc(F)c(-c3nc4ncc(-c5ccccn5)cn4n3)c2)o1` [GNF6702]: the concentration for a half-maximal effect (EC50) was 1.2 ± 0.5 nM in the series with T. b. brucei (STIB950, strain STIB950); 3.5 ± 1.2 nM with T. b. brucei (strain BS221 (P2 KO)); 0.9 ± 0.3 nM in the series with T. b. brucei (strain BS221); 1.6 ± 0.9 nM with T. b. rhodesiense (setting [7]); 0.7 ± 0.2 nM in the series on T. b. rhodesiense (setting [8]); 1.2 ± 0.3 nM in the series on T. b. rhodesiense (setting [9]).

For `Cc1nc(C)c(C(=O)Nc2ccc(F)c(-c3nc4ncc(-c5ccccc5)cn4n3)c2)o1` [GNF3849], the concentration giving a half-maximal response (EC50) in the series with T. b. brucei (STIB950, strain STIB950) was 0.9 ± 0.2 nM; in the series with T. b. brucei (strain BS221 (P2 KO)), 4 ± 2.5 nM; with T. b. brucei (strain BS221) it was 1.9 ± 0.8 nM; with T. b. rhodesiense (setting [7]), 1.4 ± 1 nM; in the series with T. b. rhodesiense (setting [8]) it was 0.6 nM; with T. b. rhodesiense (setting [9]), 1.7 ± 1 nM. Further, the concentration for a half-maximal effect (EC50) came to 10 ± 3 nM in the series with T. brucei PSMB4^WT and 2200 ± 20 nM in the series with T. brucei PSMB4^F24L. The “BTB (rat brain tissue binding)” value in the series “Rat brain tissue binding” is over 99%. In addition, the “Solubility pH 6.8” value in series [1] (pH 6.8) is “poor”. Further, the solubility in [1] is under 2 µg/mL. In series [2], this compound displayed a cytotoxic concentration (CC50) at 96 h of 1100 ± 200 nM. In series [3] (setting [5]), this compound returned an AUC of 108 µM·h. This compound came in with a Cmax in series [3] (setting [6]) of 7.16 µM. The “Exposure, fold less than GNF6702” value in [3] (oral) is ~ 2.5 fold. For the same compound, in series [3] (p.o. 20 mg/kg), the Tmax is recorded as 3 H. In series [3] (p.o. 20 mg/kg, 0 to infinity, free), the “AUC, free fraction (value in parenthesis)” value is under 1.0751 µM·h. The “Cmax, free fraction (value in parenthesis)” value in series [3] (p.o. 20 mg/kg, free) is under 0.0716 µM. Moreover, the efflux ratio in the series on MDR1 (Pgp) is 3.2. For the same compound, the “Mouse plasma protein binding” value in series [4] is on record as “high”. Also, the fraction unbound in series [4] is under 0.01.

(Values after paper PMC7157554, “Anti-Trypanosomal Proteasome Inhibitors Cure Hemolymphatic and Meningoencephalic Murine Infection Models of African Trypanosomiasis” (Tropical Medicine and Infectious Disease, 2020).)
